Laboratory results: patent US10550105B2 (Ribon Therapeutics Inc., priority 2018, dated 2020)

Target: PARP7 (Homo sapiens (Human), UniProt Q7Z3E1)
Assay: Enzymatic assay for inhibition of PARP7: TR-FRET displacement of biotinylated Probe A from the TIPARP active site
Assay type: binding
Settings: Table A-1
Summary of the method: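 Displacement of biotinylated Probe A from TIPARP was measured as the 665/615 nm time-resolved FRET ratio (excitation 320 nm, 90 μs delay) after a further 30 min at 25 °C. Inhibition across compound concentrations was fitted by dose-response regression, with the Hill slope free or fixed at 1 (3-parameter fit).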

PARP7, sequence (Q7Z3E1 whole entry): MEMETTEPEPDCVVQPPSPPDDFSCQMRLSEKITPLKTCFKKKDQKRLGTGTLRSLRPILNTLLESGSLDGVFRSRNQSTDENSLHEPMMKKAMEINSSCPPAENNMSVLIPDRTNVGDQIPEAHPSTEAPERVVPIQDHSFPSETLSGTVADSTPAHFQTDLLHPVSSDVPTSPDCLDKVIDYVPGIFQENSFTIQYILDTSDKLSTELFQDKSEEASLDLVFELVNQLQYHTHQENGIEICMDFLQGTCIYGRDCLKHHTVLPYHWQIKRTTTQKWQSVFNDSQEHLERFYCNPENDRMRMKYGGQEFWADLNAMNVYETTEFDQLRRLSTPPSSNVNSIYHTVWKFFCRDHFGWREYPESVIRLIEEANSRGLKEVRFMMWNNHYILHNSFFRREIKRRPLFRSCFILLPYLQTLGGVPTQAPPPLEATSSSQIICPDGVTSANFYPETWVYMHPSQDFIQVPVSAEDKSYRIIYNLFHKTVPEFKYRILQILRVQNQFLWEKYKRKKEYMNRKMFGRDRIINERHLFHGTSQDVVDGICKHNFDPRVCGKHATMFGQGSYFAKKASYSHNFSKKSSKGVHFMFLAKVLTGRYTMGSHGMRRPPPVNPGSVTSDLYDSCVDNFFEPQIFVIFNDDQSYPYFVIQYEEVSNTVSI

IC50 [nM]	Compound
< 100	C[C@@H](COCCC(=O)N1CCN(c2ncc(C(F)F)cn2)CC1)Nc1cn[nH]c(=O)c1C(F)(F)F [Example 706, (S)-5-((1-(3-(4-(5-(Difluoromethyl)pyrimidin-2-yl)piperazin-1-yl)-3-oxopropoxy)propan-2-yl)amino)-4-(trifluoromethyl)pyridazin-3(2H)-one]
< 100	N#Cc1ccc(N2CCN(C(=O)c3cccc(OCCOC[C@H]4CCN(c5cn[nH]c(=O)c5C(F)(F)F)C4)c3)CC2)nc1 [Example 471, (S)-6-(4-(3-(2-((1-(6-oxo-5-(trifluoromethyl)-1,6-dihydropyridazin-4-yl)pyrrolidin-3-yl)methoxy)ethoxy)benzoyl)piperazin-1-yl)nicotinonitrile]
≥ 1000	N#Cc1ccc(N2CCC3(CCN(C(=O)CCOC[C@@H]4CCCN4c4cn[nH]c(=O)c4C(F)(F)F)CC3)C2)nc1 [Example 104, 6-[8-(3-[[(2S)-1-[6-oxo-5-(trifluoromethyl)-1,6-dihydropyridazin-4-yl]pyrrolidin-2-yl]methoxy]propanoyl)-2,8-diazaspiro[4.5]decan-2-yl]pyridine-3-carbonitrile]
< 100	C[C@@H](COCCC(=O)N1CCN(c2ncc(Cl)cn2)CC1)Oc1cn[nH]c(=O)c1Br [Example 609, 4-Bromo-5-[[(2S)-1-[3-[4-(5-chloropyrimidin-2-yl)piperazin-1-yl]-3-oxopropoxy]propan-2-yl]oxy]-2,3-dihydropyridazin-3-one]
< 100	COC[C@@H](COCCC(=O)N1CCN(c2cnc(C)cn2)CC1)Nc1cn[nH]c(=O)c1C(F)(F)F [Example 695, (S)-5-((1-Methoxy-3-(3-(4-(5-methylpyrazin-2-yl)piperazin-1-yl)-3-oxopropoxy)propan-2-yl)amino)-4-(trifluoromethyl)pyridazin-3(2H)-one]
< 100	N#Cc1cnc(N2CCN(C(=O)c3cccc(OC[C@@H]4CCCN4c4cn[nH]c(=O)c4C(F)(F)F)c3)CC2)nc1 [Example 439, (S)-2-(4-(3-((1-(6-Oxo-5-(trifluoromethyl)-1,6-dihydropyridazin-4-yl)pyrrolidin-2-yl)methoxy)benzoyl)piperazin-1-yl)pyrimidine-5-carbonitrile]
100 to 1000	CSc1c(N2Cc3ccccc3C2)cn[nH]c1=O [Example 189, 5-(Isoindolin-2-yl)-4-(methylthio)pyridazin-3(2H)-one]
100 to 1000	O=C(C[C@@H]1CC[C@@H](COc2cn[nH]c(=O)c2C(F)(F)F)O1)N1CCN(c2ncc(Cl)cn2)CC1 (single isomer, unassigned) [Example 565 Isomer A]
< 100	O=C(C[C@@H]1CC[C@H](COc2cn[nH]c(=O)c2C(F)(F)F)O1)N1CCN(c2ncc(Cl)cn2)CC1 (single isomer, unassigned) [Example 565 Isomer D]
< 100	O=C(CCOC[C@@H](Nc1cn[nH]c(=O)c1C(F)(F)F)C1CC1)N1CCN(c2ncc(C(F)(F)F)cn2)CC1 [Example 606, (S)-5-[(1-Cyclopropyl-2-[3-oxo-3-[4-[5-(trifluoromethyl)pyrimidin-2-yl)piperazin-1-yl]propoxy]-ethyl]amino]-4-(trifluoromethyl)pyridazin-3(2H)-one]
≥ 1000	CN(CC1c2ccccc2CN1c1cn[nH]c(=O)c1C(F)(F)F)c1cccc(C(=O)N2CCN(c3ccc(C#N)cn3)CC2)c1 (stereo not drawn) [Example 343, 6-(4-(3-(Methyl((2-(6-oxo-5-(trifluoromethyl)-1,6-dihydropyridazin-4-yl)isoindolin-1-yl)methyl)amino)benzoyl)piperazin-1-yl)nicotinonitrile]
< 100	C[C@@H](COC[C@H](N)CC(=O)N1CCN(c2ncc(C(F)(F)F)cn2)CC1)Nc1cn[nH]c(=O)c1C(F)(F)F (single isomer, unassigned) [Example 617 Isomer A]
< 100	CC(=O)N1CCN(C(=O)c2cccc(OCC3c4ccccc4CN3c3cn[nH]c(=O)c3C(F)(F)F)c2)CC1 (stereo not drawn) [Example 405, 5-(1-((3-(4-Acetylpiperazine-1-carbonyl)phenoxy)methyl)isoindolin-2-yl)-4-(trifluoromethyl)pyridazin-3(2H)-one]
≥ 1000	CN(CC1c2ccccc2CN1c1cn[nH]c(=O)c1C(F)(F)F)c1cccc(C(=O)O)c1 (stereo not drawn) [Example 345, 3-(Methyl((2-(6-oxo-5-(trifluoromethyl)-1,6-dihydropyridazin-4-yl)isoindolin-1-yl)methyl)amino)benzoic acid]
100 to 1000	CN(C)CCOc1ccc2c(n1)CN(c1cn[nH]c(=O)c1C(F)(F)F)C2 [Example 319, 5-(2-(2-(Dimethylamino)ethoxy)-5,7-dihydro-6H-pyrrolo[3,4-b]pyridin-6-yl)-4-(trifluoromethyl)pyridazin-3(2H)-one]
< 100	O=c1[nH]ncc(N2Cc3cc(F)c(CNC4CCNCC4)cc3C2)c1C(F)(F)F [Example 23, 5-(5-fluoro-6-[[(piperidin-4-yl)amino]methyl]-2,3-dihydro-1H-isoindol-2-yl)-4-(trifluoromethyl)-2,3-dihydropyridazin-3-one]
< 100	O=C(CCOCCOc1cn[nH]c(=O)c1Br)N1CCN(c2ncc(C(F)(F)F)cn2)CC1 [Example 548, 4-Bromo-5-[2-(3-oxo-3-[4-[5-(trifluoromethyl)pyrimidin-2-yl]piperazin-1-yl]propoxy)ethoxy]-2,3-dihydropyridazin-3-one]
< 100	C[C@@H]1C[C@@H](COc2cccc(C(=O)N3CCN(c4ccc(C#N)cn4)CC3)c2)N(c2cn[nH]c(=O)c2C(F)(F)F)C1 [Example 75, 6-[4-[(3-[[(2S,4R)-4-methyl-1-[6-oxo-5-(trifluoromethyl)-1,6-dihydropyridazin-4-yl]pyrrolidin-2-yl]methoxy]phenyl)carbonyl]piperazin-1-yl]pyridine-3-carbonitrile]
≥ 1000	NCC1c2ccccc2CN1c1cn[nH]c(=O)c1C(F)(F)F (stereo not drawn) [Example 275, 5-(1-(Aminomethyl)isoindolin-2-yl)-4-(trifluoromethyl)pyridazin-3(2H)-one]
< 100	N#Cc1ccc(N2CCN(C(=O)CCNC[C@@H]3c4ccccc4CN3c3cn[nH]c(=O)c3Cl)CC2)nc1 [Example 426, (S)-6-(4-(3-(((2-(5-Chloro-6-oxo-1,6-dihydropyridazin-4-yl)isoindolin-1-yl)methyl)amino)propanoyl)piperazin-1-yl)nicotinonitrile]
< 100	C[C@@H](COC[C@@H](N)CC(=O)N1CCN(c2ncc(C(F)(F)F)cn2)CC1)Nc1cn[nH]c(=O)c1C(F)(F)F (single isomer, unassigned) [Example 617 Isomer B]
100 to 1000	O=C(CCOC[C@@H]1c2ccccc2CN1c1cn[nH]c(=O)c1C(F)(F)F)N1CCNCC1 [Example 417, (S)-5-(1-((3-Oxo-3-(piperazin-1-yl)propoxy)methyl)isoindolin-2-yl)-4-(trifluoromethyl)pyridazin-3(2H)-one]
< 100	O=c1[nH]ncc(N2Cc3cccc(CNc4ccncc4)c3C2)c1C(F)(F)F [Example 339, 5-(4-((Pyridin-4-ylamino)methyl)isoindolin-2-yl)-4-(trifluoromethyl)pyridazin-3(2H)-one]
≥ 1000	CC(=O)N1CCC(Oc2cccc3c2CN(c2cn[nH]c(=O)c2Cl)C3)CC1 [Example 258, 5-(4-((1-Acetylpiperidin-4-yl)oxy)isoindolin-2-yl)-4-chloropyridazin-3(2H)-one]
< 100	O=c1[nH]ncc(N2Cc3cccc(OCCO)c3C2)c1C(F)(F)F [Example 181, 5-(4-(2-Hydroxyethoxy)isoindolin-2-yl)-4-(trifluoromethyl)pyridazin-3(2H)-one]
< 100	COC[C@H](COCCC(=O)N1CCN(c2ncc(Cl)cn2)CC1)Nc1cn[nH]c(=O)c1C(F)(F)F [Example 557, 5-[[(2R)-1-[3-[4-(5-Chloropyrimidin-2-yl)piperazin-1-yl]-3-oxopropoxy]-3-methoxypropan-2-yl]amino]-4-(trifluoromethyl)-2,3-dihydropyridazin-3-one]
< 100	O=C(C[C@@H]1CC[C@@H]([C@@H]2CCCN2c2cn[nH]c(=O)c2C(F)(F)F)O1)N1CCN(c2ncc(C(F)(F)F)cn2)CC1 [Example 149A, 5-[(2S)-2-[(2S,5S)-5-(2-oxo-2-[4-[5-(trifluoromethyl)pyrimidin-2-yl]piperazin-1-yl]ethyl)oxolan-2-yl]pyrrolidin-1-yl]-4-(trifluoromethyl)-2,3-dihydropyridazin-3-one]
≥ 1000	N#CCCC(=O)N1CCN(C(=O)CCOC[C@H]2c3ccccc3CN2c2cn[nH]c(=O)c2C(F)(F)F)CC1 [Example 424, (R)-4-Oxo-4-(4-(3-((2-(6-oxo-5-(trifluoromethyl)-1,6-dihydropyridazin-4-yl)isoindolin-1-yl)methoxy)propanoyl)piperazin-1-yl)butanenitrile]
< 100	CC(=O)N1CCN(CCOc2cccc3c2CN(c2cn[nH]c(=O)c2C(F)(F)F)C3)CC1 [Example 228, 5-(4-(2-(4-Acetylpiperazin-1-yl)ethoxy)isoindolin-2-yl)-4-(trifluoromethyl)pyridazin-3(2H)-one]
< 100	N#Cc1cnc(N2CCN(C(=O)c3cncc(OC[C@@H]4c5ccccc5CN4c4cn[nH]c(=O)c4C(F)(F)F)c3)CC2)nc1 [Example 395, (S)-2-(4-(5-((2-(6-Oxo-5-(trifluoromethyl)-1,6-dihydropyridazin-4-yl)isoindolin-1-yl)methoxy)nicotinoyl)piperazin-1-yl)pyrimidine-5-carbonitrile]

Compound	IC50 [nM]
CN(c1cccc2c1CN(c1cn[nH]c(=O)c1C(F)(F)F)C2)C1CCNCC1 [Example 302, 5-(4-(Methyl(piperidin-4-yl)amino)isoindolin-2-yl)-4-(trifluoromethyl)pyridazin-3(2H)-one]	100 to 1000
N#Cc1c(N2Cc3cccc(OC4CCNCC4)c3C2)cn[nH]c1=O [Example 182, 3-Oxo-5-(4-(piperidin-4-yloxy)isoindolin-2-yl)-2,3-dihydropyridazine-4-carbonitrile formic acid]	≥ 1000
Cc1ccc2c(n1)CN(c1cn[nH]c(=O)c1C(F)(F)F)C2 [Example 320, 5-(2-Methyl-5,7-dihydro-6H-pyrrolo[3,4-b]pyridin-6-yl)-4-(trifluoromethyl)pyridazin-3(2H)-one]	< 100
